Measured values reported in BindingDB's records for doi:10.1016/j.bmcl.2012.06.068 (Chulalongkorn University, 2012).

What was measured:
[1] = Competitive inhibition of rat intestinal maltase using maltose as substrate assessed as dissociation of enzyme-inhibitor complex at 0.1 to 1 mg/ml by Dixon plot analysis
[2] = Non-competitive inhibition of rat intestinal maltase using maltose as substrate assessed as dissociation of enzyme-substrate-inhibitor complex at 0.1 to 1 mg/ml by secondary plot analysis

Structure (SMILES): COc1cc([C@@H]2OC[C@@H]3[C@H]2CO[C@H]3c2ccc(O)c(OC)c2)ccc1O [4-[(1S,3aR,4S,6aR)-4-(4-hydroxy-3-methoxyphenyl)tetrahydro-1H,3H-furo[3,4-c]furan-1-yl]-2-methoxyphenol]
- Ki [1]: 288 µM
- Ki [2]: 1340 µM
